# Assay results as given in US20240076293A1, “Compositions and Methods for Inhibiting Fibrosis, Inflammation and Cancer” (Georgia Tech Research Corporation, priority 2020, published 2024).
# Where two headings read alike, the source gives them in different places.
# What was measured:
# Type in all cases: cell-based
# [1] = system: VERO; assay: Anti-proliferation IC50, VERO; details: Chlorocebus sabaeus
# [2] = system: Hep-G2; assay: Anti-proliferation IC50, Hep-G2; details: Homo sapiens, HepG2
# [3] = system: A549; assay: Anti-proliferation IC50, A549; details: Homo sapiens
# [4] = Anti-proliferation IC50, MRC-5; details: human, MRC-5 cells; Table 1, compounds of formula I; NI = no inhibition up to 500 μM
# [5] = system: MRC-5; assay: Anti-proliferation IC50, MRC-5; details: Homo sapiens, MRC5; Table 2, compounds of formula II
# [6] = Table 1, compounds of formula I, NI = no inhibition up to 500 μM, read-out: VERO (IC50)
# [7] = Table 1, compounds of formula I, NI = no inhibition up to 500 μM, read-out: Hep-G2 (IC50)
# [8] = Table 1, compounds of formula I, NI = no inhibition up to 500 μM, read-out: A549 (IC50)
# [9] = Table 2, compounds of formula II, read-out: Anti-proliferation IC50 VERO
# [10] = Table 2, compounds of formula II, read-out: Anti-proliferation IC50 Hep-G2
# [11] = Table 2, compounds of formula II, read-out: Anti-proliferation IC50 A549
SMILES,"IC50 [2, 7] [µM]","IC50 [3, 8] [µM]","IC50 [2, 10] [µM]","IC50 [3, 11] [µM]","IC50 [1, 6] [µM]",IC50 [4] [µM],"IC50 [1, 9] [µM]",IC50 [5] [µM]
CCC1OC(=O)[C@H](C)[C@H](OC2C[C@@](C)(OC)[C@@H](O)[C@H](C)O2)[C@H](C)[C@@H](OC2O[C@H](C)C[C@H](N(C)Cc3cn(CCc4ccc(-n5cc(C)ccc5=O)cc4)nn3)[C@H]2O)[C@@](C)(OC)C[C@@H](C)C(=O)[C@H](C)[C@@H](O)[C@]1(C)O (stereo partly shown) [Compound 12b],122 ± 3.7,116 ± 4.1,–,–,104 ± 20.3,84 ± 4.5,–,–
CCC1OC(=O)[C@H](C)[C@H](OC2C[C@@](C)(OC)[C@@H](O)[C@H](C)O2)[C@H](C)[C@@H](OC2O[C@H](C)C[C@H](N(C)Cc3ccc(-c4cn(Cc5ccc(-n6cc(C)ccc6=O)cc5)nn4)cc3)[C@H]2O)[C@@](C)(OC)C[C@@H](C)C(=O)[C@H](C)[C@@H](O)[C@]1(C)O (stereo partly shown) [Compound 10c],20.3 ± 1,11.1 ± 2.7,–,–,5.1 ± 0.2,12.3 ± 1.8,–,–
CC[C@@H]1OC(=O)[C@@H](C)[C@H](O[C@H]2C[C@@](C)(OC)[C@@H](O)[C@H](C)O2)C(C)[C@H](O[C@H]2O[C@@H](C)C[C@@H](N(C)C(=O)/C=C/C=C/c3ccc4c(c3)OCO4)[C@@H]2O)C(C)(O)C[C@H](C)CN(C)[C@@H](C)[C@H](O)[C@@]1(C)O (stereo partly shown),–,–,10.2 ± 1.9,19.6 ± 1.8,–,–,12.9,11.4 ± 0.4
CC[C@H]1OC(=O)[C@H](C)[C@@H](O[C@H]2C[C@@](C)(OC)[C@@H](O)[C@H](C)O2)[C@H](C)[C@@H](O[C@@H]2O[C@H](C)C[C@H](N(C)Cc3cn(Cc4ccc(-n5cc(C)ccc5=O)cc4)nn3)[C@H]2O)[C@](C)(O)C[C@@H](C)CN(C)[C@H](C)[C@@H](O)[C@]1(C)O [Compound 11b],–,–,234 ± 31.1,265 ± 4,–,–,122 ± 19.4,121 ± 14.1
"CC[C@H]1OC(=O)[C@H](C)[C@@H](O[C@H]2C[C@@](C)(OC)[C@@H](O)[C@H](C)O2)[C@H](C)[C@@H](O[C@@H]2O[C@H](C)C[C@H](N(C)C)[C@H]2O)[C@](C)(OC)C[C@@H](C)C(=O)[C@H](C)[C@@H](O)[C@]1(C)O [Clarithromycin (CLM), Clarithromycin, reference compound]",130,> 500,–,–,> 500,138.1 ± 1.1,–,–
CCC1OC(=O)[C@H](C)[C@H](OC2C[C@@](C)(OC)[C@@H](O)[C@H](C)O2)[C@H](C)[C@@H](OC2O[C@H](C)C[C@H](N(C)Cc3ccc(-n4cc(C)ccc4=O)cc3)[C@H]2O)[C@@](C)(OC)C[C@@H](C)C(=O)[C@H](C)[C@@H](O)[C@]1(C)O (stereo partly shown) [Compound 10a],> 500,> 500,–,–,> 500,> 500,–,–
CCC1OC(=O)[C@H](C)[C@H](OC2C[C@@](C)(OC)[C@@H](O)[C@H](C)O2)[C@H](C)[C@@H](OC2O[C@H](C)C[C@H](N(C)Cc3ccc(-c4cn(CCc5ccc(-n6cc(C)ccc6=O)cc5)nn4)cc3)[C@H]2O)[C@@](C)(OC)C[C@@H](C)C(=O)[C@H](C)[C@@H](O)[C@]1(C)O (stereo partly shown) [Compound 12c],28.1 ± 1.8,35.3 ± 1.5,–,–,14.2 ± 0.3,13.1 ± 1.2,–,–
"O=C(O)/C=C/C=C/c1ccc2c(c1)OCO2 [Piperic acid (PPA), Piperic acid, reference compound]",> 500,> 500,–,–,> 500,> 500,–,–
CC[C@H]1OC(=O)[C@@H](C)[C@@H](O[C@@H]2C[C@](C)(OC)[C@H](O)[C@@H](C)O2)[C@@H](C)[C@@H](O[C@H]2O[C@@H](C)C[C@@H](N(C)C)[C@@H]2OC(=O)/C=C/C=C/c2ccc3c(c2)OCO3)[C@](C)(OC)C[C@@H](C)C(=O)[C@H](C)[C@H](O)[C@]1(C)O,5.6 ± 0.1,16.9 ± 0.7,–,–,21 ± 2.3,7.8 ± 0.7,–,–
CCC1OC(=O)[C@H](C)[C@H](OC2C[C@@](C)(OC)[C@@H](O)[C@H](C)O2)[C@H](C)[C@@H](OC2O[C@H](C)C[C@H](N(C)CCc3ccc(-n4cc(C)ccc4=O)cc3)[C@H]2O)[C@@](C)(OC)C[C@@H](C)C(=O)[C@H](C)[C@@H](O)[C@]1(C)O (stereo partly shown) [Compound 12a],> 500,> 500,–,–,> 500,119,–,–
"Cc1ccc(=O)n(-c2ccccc2)c1 [Pirfenidone (Pir), Pirfenidone, reference compound]",10900,5410 ± 241,–,–,10788 ± 0.6,5300 ± 178,–,–
CCC1OC(=O)[C@H](C)[C@H](OC2C[C@@](C)(OC)[C@@H](O)[C@H](C)O2)[C@H](C)[C@@H](OC2O[C@H](C)C[C@H](N(C)Cc3cn(Cc4ccc(-n5cc(C)ccc5=O)cc4)nn3)[C@H]2O)[C@@](C)(OC)C[C@@H](C)C(=O)[C@H](C)[C@@H](O)[C@]1(C)O (stereo partly shown) [Compound 10b],116 ± 16,118 ± 28.4,–,–,153 ± 19,102.6 ± 0.8,–,–
"CC[C@H]1OC(=O)[C@H](C)[C@@H](O[C@H]2C[C@@](C)(OC)[C@@H](O)[C@H](C)O2)[C@H](C)[C@@H](O[C@@H]2O[C@H](C)C[C@H](N(C)C)[C@H]2O)[C@](C)(O)C[C@@H](C)CN(C)[C@H](C)[C@@H](O)[C@]1(C)O [Azithromycin (AZM), Azithromycin, reference compound]",85.3 ± 0.9,204 ± 4.5,–,–,222 ± 18.1,127 ± 1,–,–
CC[C@@H]1OC(=O)[C@@H](C)[C@H](O[C@H]2C[C@@](C)(OC)[C@@H](O)[C@H](C)O2)[C@@H](C)[C@H](O[C@H]2O[C@@H](C)C[C@@H](N(C)C(=O)/C=C/C(=O)OC)[C@@H]2O)C(C)(O)C[C@H](C)CN(C)[C@@H](C)[C@H](O)[C@@]1(C)O (stereo partly shown),–,–,126,214,–,–,212,–

# The next lines start with results.
"IC50 [2, 7] [µM]","IC50 [3, 8] [µM]","IC50 [2, 10] [µM]","IC50 [3, 11] [µM]",SMILES,"IC50 [1, 6] [µM]",IC50 [4] [µM],"IC50 [1, 9] [µM]",IC50 [5] [µM]
–,–,12.7 ± 1.3,15.5 ± 1.1,CC[C@H]1OC(=O)[C@H](C)[C@@H](O[C@H]2C[C@@](C)(OC)[C@@H](O)[C@H](C)O2)[C@H](C)[C@@H](O[C@@H]2O[C@H](C)C[C@H](N(C)CCCCC#Cc3ccc(-n4cc(C)ccc4=O)cc3)[C@H]2O)[C@](C)(O)C[C@@H](C)CN(C)[C@H](C)[C@@H](O)[C@]1(C)O [Compound 20d],–,–,16.2 ± 3.1,5.5 ± 0.2
44.8 ± 3.6,28.7 ± 3.4,–,–,CCC1OC(=O)[C@H](C)[C@H](OC2C[C@@](C)(OC)[C@@H](O)[C@H](C)O2)[C@H](C)[C@@H](OC2O[C@H](C)C[C@H](N(C)Cc3cn(CCCCc4ccc(-n5cc(C)ccc5=O)cc4)nn3)[C@H]2O)[C@@](C)(OC)C[C@@H](C)C(=O)[C@H](C)[C@@H](O)[C@]1(C)O (stereo partly shown) [Compound 14b],33.3 ± 1.9,32.8 ± 5.1,–,–
30.9 ± 1.4,16.3 ± 1.6,–,–,CCC1OC(=O)[C@H](C)[C@H](OC2C[C@@](C)(OC)[C@@H](O)[C@H](C)O2)[C@H](C)[C@@H](OC2O[C@H](C)C[C@H](N(C)CCCCc3ccc(-n4cc(C)ccc4=O)cc3)[C@H]2O)[C@@](C)(OC)C[C@@H](C)C(=O)[C@H](C)[C@@H](O)[C@]1(C)O (stereo partly shown) [Compound 14a],19 ± 3.7,15.7 ± 2.3,–,–
24 ± 1.2,58.6 ± 1.4,–,–,CCC1OC(=O)[C@H](C)[C@H](OC2C[C@@](C)(OC)[C@@H](O)[C@H](C)O2)[C@H](C)[C@@H](OC2O[C@H](C)C[C@H](N(C)CCCC#Cc3ccc(-n4cc(C)ccc4=O)cc3)[C@H]2O)[C@@](C)(OC)C[C@@H](C)C(=O)[C@H](C)[C@@H](O)[C@]1(C)O (stereo partly shown) [Compound 19c],55.5 ± 0.4,15.2 ± 0.1,–,–
23.7 ± 2,23.8 ± 2.1,–,–,CCC1OC(=O)[C@H](C)[C@H](OC2C[C@@](C)(OC)[C@@H](O)[C@H](C)O2)[C@H](C)[C@@H](OC2O[C@H](C)C[C@H](N(C)CCCCCC#Cc3ccc(-n4cc(C)ccc4=O)cc3)[C@H]2O)[C@@](C)(OC)C[C@@H](C)C(=O)[C@H](C)[C@@H](O)[C@]1(C)O (stereo partly shown) [Compound 19e],13.2 ± 0.7,24.2 ± 0.6,–,–
50.7 ± 3,44.1 ± 10.8,–,–,CCC1OC(=O)[C@H](C)[C@H](OC2C[C@@](C)(OC)[C@@H](O)[C@H](C)O2)[C@H](C)[C@@H](OC2O[C@H](C)C[C@H](N(C)CC#Cc3ccc(-n4cc(C)ccc4=O)cc3)[C@H]2O)[C@@](C)(OC)C[C@@H](C)C(=O)[C@H](C)[C@@H](O)[C@]1(C)O (stereo partly shown) [Compound 19a],55.5 ± 2.6,82.6 ± 0.3,–,–
32 ± 0.1,35.4 ± 2.1,–,–,CCC1OC(=O)[C@H](C)[C@H](OC2C[C@@](C)(OC)[C@@H](O)[C@H](C)O2)[C@H](C)[C@@H](OC2O[C@H](C)C[C@H](N(C)CCCCC#Cc3ccc(-n4cc(C)ccc4=O)cc3)[C@H]2O)[C@@](C)(OC)C[C@@H](C)C(=O)[C@H](C)[C@@H](O)[C@]1(C)O (stereo partly shown) [Compound 19d],24.3 ± 0.1,28.9 ± 1.9,–,–
36.4 ± 6.6,10.9 ± 0.4,–,–,CCC1OC(=O)[C@H](C)[C@H](OC2C[C@@](C)(OC)[C@@H](O)[C@H](C)O2)[C@H](C)[C@@H](OC2O[C@H](C)C[C@H](N(C)Cc3ccc(-c4cn(CCCCc5ccc(-n6cc(C)ccc6=O)cc5)nn4)cc3)[C@H]2O)[C@@](C)(OC)C[C@@H](C)C(=O)[C@H](C)[C@@H](O)[C@]1(C)O (stereo partly shown) [Compound 14c],12.4 ± 0.2,11.6 ± 0.3,–,–
60.9 ± 9,59.9 ± 0.8,–,–,CCC1OC(=O)[C@H](C)[C@H](OC2C[C@@](C)(OC)[C@@H](O)[C@H](C)O2)[C@H](C)[C@@H](OC2O[C@H](C)C[C@H](N(C)CCC#Cc3ccc(-n4cc(C)ccc4=O)cc3)[C@H]2O)[C@@](C)(OC)C[C@@H](C)C(=O)[C@H](C)[C@@H](O)[C@]1(C)O (stereo partly shown) [Compound 19b],130 ± 21.2,> 500,–,–
